From paper PMC5355235, “FLT3 activating mutations display differential sensitivity to multiple tyrosine kinase inhibitors” (Oncotarget, 2017)
Numbering of substitutions follows the chain as printed.

How the values were obtained:
Type in all cases: cell-based
FLT3/ITD = FLT3/ITD autophosphorylation and signaling pathways, Western blot; details: FLT3/ITD cells, 1 h, concentration-dependent
Procedure: (§1) Activated FLT3 expression was measured by performing immunoprecipitation, SDS-PAGE and Western blotting as previously described. Specifically, 10^7 cells were washed in medium and treated with inhibitor for 1 h followed by stimulation with 25 ng/ml of FLT3 ligand for 15 minutes where indicated. Cells were washed twice with ice-cold PBS and lysed in 300 µl of NP-40 lysis buffer (150 mM NaCl, 20 mM TrisHCl (pH7.4), 10% glycerol, 1% NP-40, 10 mM EDTA, 100 mM NaF) with 2 mM Na3VO4 and protease inhibitors (Complete Tablets, Roche, Mannheim, Germany) at 4°C for 30 m. Cell lysate was harvested by centrifugation at 13,000 × g for 30 m at 4°C. FLT3 S-18 antibody was incubated with 500 µg lysate overnight at 4°C followed by immunoprecipitation with protein A-agarose beads for 2 h. Beads were washed once in Tris buffered saline with 1% Tween-20 (TBST) and twice in TBS. Samples were boiled in sodium dodecyl sulfate (SDS) sample buffer prior to separating in a 8% SDS-polyacrylamide gel (SDS-PAGE). Proteins were transferred to a polyvinyl diflouride (PVDF) membrane (Millipore, Bedford, MA, USA) and detected by 4G10 phosphotyrosine antibody and anti-FLT3 S-18 antibody. FLT3 was visualized using the Odyssey Infra Red Imaging System from Li-Cor (Lincoln, NE, USA) using AlexaFluor 680 goat anti-mouse and AlexaFluor 800 goat anti-rabbit antibodies. Phosphorylation of the FLT3 downstream signaling mediators, STAT5, AKT and MAP kinase was investigated by loading 50 µg of whole cell lysate and probing with the indicated antibodies. The membrane was washed and incubated in goat anti-rabbit secondary antibody conjugated to horseradish peroxidase followed by enhanced chemiluminescence (ECL). The membrane was subsequently stripped in 200 mM glycine buffer, pH 2.5 with 0.1% Tween-20 and reprobed for STAT5, AKT and MAP kinase expression using the respective antibodies.

FLT3 I836T = molecular target: T1, FLT3 I836T (Homo sapiens, UniProt P36888, I836T); test: FLT3 autophosphorylation, immunoprecipitation/Western blot, I836T; details: I836T mutant, concentrations of 200 nM, 1 h
T1 construct: expressed in transfected cells; host or cells: BaF3
T1 sequence (P36888 27-993 I836T): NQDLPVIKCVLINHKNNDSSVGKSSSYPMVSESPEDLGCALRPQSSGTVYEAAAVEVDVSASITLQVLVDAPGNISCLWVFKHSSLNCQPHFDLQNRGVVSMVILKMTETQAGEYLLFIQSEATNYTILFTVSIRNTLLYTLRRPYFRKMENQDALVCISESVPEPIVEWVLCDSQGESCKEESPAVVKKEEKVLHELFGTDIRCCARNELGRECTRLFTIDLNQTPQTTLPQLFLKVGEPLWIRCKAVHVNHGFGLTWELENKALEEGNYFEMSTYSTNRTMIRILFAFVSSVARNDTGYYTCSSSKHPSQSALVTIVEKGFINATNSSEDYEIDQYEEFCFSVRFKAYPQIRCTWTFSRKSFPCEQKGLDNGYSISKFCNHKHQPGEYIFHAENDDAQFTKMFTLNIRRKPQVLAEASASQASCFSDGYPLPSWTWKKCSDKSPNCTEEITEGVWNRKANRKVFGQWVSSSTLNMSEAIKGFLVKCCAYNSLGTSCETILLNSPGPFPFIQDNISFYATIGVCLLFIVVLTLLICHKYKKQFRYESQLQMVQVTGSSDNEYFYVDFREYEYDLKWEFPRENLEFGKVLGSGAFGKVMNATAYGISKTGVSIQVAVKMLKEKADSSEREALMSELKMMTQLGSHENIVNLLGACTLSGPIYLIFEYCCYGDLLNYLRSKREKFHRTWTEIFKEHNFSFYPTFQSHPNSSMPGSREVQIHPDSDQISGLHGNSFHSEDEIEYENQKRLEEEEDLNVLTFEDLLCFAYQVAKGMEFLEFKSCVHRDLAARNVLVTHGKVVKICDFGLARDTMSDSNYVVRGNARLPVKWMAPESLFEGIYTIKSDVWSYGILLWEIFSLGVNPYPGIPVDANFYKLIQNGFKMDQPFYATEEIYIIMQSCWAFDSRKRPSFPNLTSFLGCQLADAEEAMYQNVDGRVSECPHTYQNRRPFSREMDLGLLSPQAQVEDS
Procedure: as §1, with “Phosphorylation of the FLT3 downstream signaling mediators, STAT5, AKT and MAP kinase was investigated by loading 50 µg of whole cell lysate and probing with the indicated antibodies. The membrane was washed and incubated in goat anti-rabbit secondary antibody conjugated to horseradish peroxidase followed by enhanced chemiluminescence (ECL). The membrane was subsequently stripped in 200 mM glycine buffer, pH 2.5 with 0.1% Tween-20 and reprobed for STAT5, AKT and MAP kinase expression using the respective antibodies.” left out

FLT3 I836S = molecular target: T2, FLT3 I836S (Homo sapiens, UniProt P36888, I836S); test: FLT3 autophosphorylation, immunoprecipitation/Western blot, I836S; details: I836S mutant, concentrations of 200 nM, 1 h
T2 construct: expressed in transfected cells; host or cells: BaF3
T2 sequence (P36888 27-993 I836S): T1 sequence (P36888 27-993 I836T) with T810S
Procedure: as §1, with “Phosphorylation of the FLT3 downstream signaling mediators, STAT5, AKT and MAP kinase was investigated by loading 50 µg of whole cell lysate and probing with the indicated antibodies. The membrane was washed and incubated in goat anti-rabbit secondary antibody conjugated to horseradish peroxidase followed by enhanced chemiluminescence (ECL). The membrane was subsequently stripped in 200 mM glycine buffer, pH 2.5 with 0.1% Tween-20 and reprobed for STAT5, AKT and MAP kinase expression using the respective antibodies.” left out

Row | Compound | Inhibition of FLT3 autophosphorylation and phosphorylation of STAT5, AKT and Map kinase (FLT3/ITD) | Inhibition of FLT3 phosphorylation (FLT3 I836T) | Inhibition of FLT3 phosphorylation (FLT3 I836S)
1 | Cc1cc2ncc(-c3ccccc3)nc2cc1C [AG1295] | inhibited FLT3 autophosphorylation |  | 
2 | CC1(COc2ccc3c(c2)ncn3-c2ccc3cccc(N4CCC(N)CC4)c3n2)COC1 [Crenolanib] |  | significant autophosphorylation still observable | significant autophosphorylation still observable
3 | Cc1ccc(C(=O)Nc2ccc(CN3CCN(C)CC3)c(C(F)(F)F)c2)cc1C#Cc1cnc2cccnn12 [Ponatinib] |  | significant autophosphorylation still observable | significant autophosphorylation still observable
